Source: patent EP1118615A1, “NOVEL SALTS OF PYRIDOPYRAZINE COMPOUND AND CRYSTALS THEREOF” (FUJISAWA PHARMACEUTICAL CO., LTD., priority 1998, dated 2000)

Tests used:
[1] = system: IL-10; test: (A3) Anti-CD3/CD28 antibody-stimulated cytokine production inhibitory activity in PBMC, ELISA: IL-10; assay type: cell-based; conditions: Homo sapiens, anti-CD3 and anti-CD28 antibodies, 24-hr culture supernatant
Procedure: (A3) Anti-CD3/CD28 antibody-stimulated TNF α production inhibitory activity in human peripheral blood monocytes (PBMC)
[Method] Monocytes isolated from healthy adult male volunteers were cultured and stimulated with anti-CD3 and anti-CD28 antibodies and the amounts of TNF, INF, 1L-2, IL-4 and IL-10 in the 24-hr culture supernatant were determined by ELISA.

[2] = system: ConA (concanavalin A) -induced mouse hepatitis model; test: (B3) ConA (concanavalin A)-induced mouse hepatitis model; assay type: in vivo, Balb/c mice; conditions: 18 hours after ConA
Procedure: (B3) ConA (concanavalin A) -induced mouse hepatitis model
[Method] Male Balb/c mice aged 9 weeks were deprived of food for 20 hours and the drug or the solvent vehicle was administered orally in predetermined doses. After 1 hour, saline was administered intravenously to the NORMAL group and concanavalin A, 0.4 mg/mouse, was administered similarly to the CONTROL and DRUG groups. At 18 hours after administration of ConA, the blood was drawn and the liver isolated. Using the blood, the liver-derived enzymes (ALT and AST) in plasma were assayed. The liver was fixed in formalin and pathological specimens were prepared. Histopathological findings (inflammatory cell infiltration and liver cell necrosis) were evaluated.

[3] = system: antigen-induced eosinophil infiltration in guinea pigs; test: (B8) Inhibitory effect on antigen-induced eosinophil infiltration in guinea pigs; assay type: in vivo, Hartley guinea pigs; conditions: oral 1 hour before the challenge; BAL 24 hours after challenge
Procedure: (B8) Inhibitory effect on antigen-induced eosinophil infiltration in guinea pigs
[Method] Male Hartley guinea pigs were sensitized by intravenous administration of guinea-pig anti-ovalbumin (OVA) antiserum. After 24 hours, an antigen challenge was performed by inhalation exposure to a nebulized 1% solution of OVA. At 24 hours after challenge with the antigen, the bronchial alveolar lavage (BAL) was collected and the number of eosinophils was determined using the eosinophil peroxidase activity in BAL as an indicator. The drug was administered orally 1 hour before the challenge. [Results]

[4] = Stability in solid state; assay type: physicochemical; set-up: Water content: unit not given here
From the text: The crystallinity of hydrochloride was decreased when it was mixed with ethanol.
In the study on polymorphism of compound (I), six kinds of polymorphs (A01, A09, A16, A20, A30 and A43 crystals) were found. For each of those polymorphs, hygroscopicity, stability in solid state, solubility and changes in crystallinity on compounding with various solvents were studied. However, the A30 crystal was not studied since it contains ethanol.
(2) Stability in solid state

Compound: CS(=O)(=O)O.O.O.O=C(Nc1cccc(-n2c(=O)c(Cc3cccnc3)nc3cccnc32)c1)c1cc(Cl)cc(Cl)c1 [Example 2, 4-(3-(3,5-dichlorobenzoylamino)phenyl)-2-(3-pyridyl)methyl-3-oxo-3,4-dihydropyrido[2,3-b]pyrazine methanesulfonate dihydrate]
- IC50 [1]: 59.7 nM
- elevation of blood ALT ([2]; oral 1 hour before ConA): significantly inhibited
- elevation of blood AST ([2]; oral 1 hour before ConA): significantly inhibited
- inflammatory cell infiltration ([2]; oral, histopathology): inhibited
- liver cell necrosis ([2]; oral, histopathology): inhibited
- infiltration of eosinophils and other inflammatory cells into the bronchial alveola [3]: inhibited
- % Residue ([4]; 70°C, 75% RH, 9 days): 101.6%
- Appearance ([4]; 70°C, 75% RH, 9 days): Pale yellowish white crystalline powder
- Crystal form ([4]; 70°C, 75% RH, 9 days): Unchanged
- Water content ([4]; 70°C, 75% RH, 9 days): 5.09
- % Residue ([4]; 70°C, 9 days): 100.3%
- Appearance ([4]; 70°C, 9 days): Pale yellowish white crystalline powder
- Crystal form ([4]; 70°C, 9 days): Unchanged
- Water content ([4]; 70°C, 9 days): 1.68
- % Residue ([4]; Initial): 100.0%
- Appearance ([4]; Initial): Pale yellowish white white crystalline powder
- Water content ([4]; Initial): 1.75
- change in crystal form ([4]; heat and humidity, summary of Table 3): no change
- chemical stability against heat and humidity ([4]; summary of Table 3): chemically stable
